Test results: patent US10899754B2, “Modulators of indoleamine 2,3-dioxygenase” (GLAXOSMITHKLINE INTELLECTUAL PROPERTY DEVELOPMENT LIMITED, priority 2016, dated 2021)

Tests used:
Type in all cases: cell-based
[1] = test system: human epithelial HeLa cells; assay: HeLa cytotoxicity assay (CellTiter-Glo); conditions: pCC50
Outline: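 HeLa cells (5,000/well) stimulated with 10 nM IFN-γ, exposed to 11-point 3-fold compound dilutions for 2 days at 37 °C; viability by CellTiter-Glo ATP luminescence. Normalized to cell-free (100% cytotoxicity) and stimulated-cell DMSO (0%) controls; four-parameter fit gives pCC50.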

[2] = test system: human peripheral blood mononuclear cells (PBMC); assay: PBMC cytotoxicity assay (CellTiter-Glo); conditions: 2 days, pCC50
Outline: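 Human PBMC (50,000 cells/well) stimulated with IFN-γ 100 ng/ml and LPS 50 ng/ml were exposed to 11-point 3-fold compound dilutions for 2 days at 37 °C, 5% CO2. Viability read by CellTiter-Glo ATP luminescence and normalized to no-cell and stimulated-DMSO controls. XC50 derived by four-parameter fit.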

[3] = molecular target: T1, indoleamine 2, 3-dioxygenase (IDO1) (Homo sapiens, UniProt P14902); assay: IDO1 HeLa RapidFire MS assay (kynurenine detection by mass spectrometry); set-up: to induce the expression of indoleamine 2, 3-dioxygenase (IDO1); conditions: HeLa cells, pIC50, read-out: IDO1_HELA_PXC50 (converted)
T1 sequence (P14902 whole entry): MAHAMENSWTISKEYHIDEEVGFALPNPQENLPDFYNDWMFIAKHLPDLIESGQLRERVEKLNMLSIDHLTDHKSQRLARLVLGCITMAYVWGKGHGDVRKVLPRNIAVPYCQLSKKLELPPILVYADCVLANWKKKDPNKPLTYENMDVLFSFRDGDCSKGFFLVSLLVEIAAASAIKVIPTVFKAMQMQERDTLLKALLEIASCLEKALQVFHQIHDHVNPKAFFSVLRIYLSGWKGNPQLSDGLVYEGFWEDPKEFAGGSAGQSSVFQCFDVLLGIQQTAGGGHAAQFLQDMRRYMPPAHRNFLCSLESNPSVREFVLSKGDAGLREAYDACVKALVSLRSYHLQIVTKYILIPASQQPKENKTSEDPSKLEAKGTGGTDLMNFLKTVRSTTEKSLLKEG
Outline: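 Compound potency reported as pIC50 from kynurenine/internal-standard ratio (RapidFire MS) in supernatant of IFN-γ-induced (10 nM) HeLa cells, 5,000 per well, after 2 days' treatment with 11-point dilutions. Cytotoxicity in the same format by luminescent ATP detection, reported as pCC50.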

[4] = molecular target: T1, indoleamine 2, 3-dioxygenase (IDO1); assay: IDO1 PBMC RapidFire MS assay (kynurenine detection by mass spectrometry); set-up: to induce the expression of indoleamine 2, 3-dioxygenase (IDO1); host or cells: human PBMC stimulated with IFN-gamma and LPS; conditions: human PBMC stimulated with IFN-γ and LPS, 2 days, pIC50, read-out: PBMC PXC50 (converted)
Outline: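 PBMCs (50,000 cells/well) stimulated with IFN-γ 100 ng/ml plus LPS 50 ng/ml, treated with 11-point 3-fold compound series for 2 days at 37° C. Supernatant kynurenine measured by RapidFire MS, normalised to internal standard; parallel cytotoxicity by CellTiter-Glo luminescence; curves fitted for XC50.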

SMILES | IC50 [3] [nM] | IC50 [4] [nM] | HELA_IDO1_TOX_PXC50 [1] | PBMC TOX PXC50 [2]
CC(C)CN(c1ccc(C(C)(C)CC(=O)O)cc1Nc1ccc(Cl)cn1)C1CCOCC1 [Example 4, 3-(3-((5-chloropyridin-2-yl)amino)-4-(isobutyl(tetrahydro-2H-pyran-4-yl)amino)phenyl)-3-methylbutanoic Acid] | 6.31 | 3.98 | <5 | <5
COc1ncc(Nc2cc([C@H](C)CC(=O)O)ccc2N(CC(C)C)C2CCOCC2)cn1 [Example 15, (R)-3-(4-(isobutyl(tetrahydro-2H-pyran-4-yl)amino)-3-((2-methoxypyrimidin-5-yl)amino)phenyl)butanoic Acid] | 7.94 | 3.16 | <5 | <5
CC(C)CN(c1ccc([C@H](C)CC(=O)O)cc1Nc1cnc(C#N)nc1)C1CCOCC1 [Example 17, (R)-3-(3-((2-cyanopyrimidin-5-yl)amino)-4-(isobutyl(tetrahydro-2H-pyran-4-yl)amino)phenyl)butanoic Acid] | 6.31 | 2 | <5 | <5
CC(C)CN(c1ccc([C@H](C)CC(=O)O)cc1Nc1cnc(C#N)cn1)C1CCOCC1 [Example 19, (R)-3-(3-((5-cyanopyrazin-2-yl)amino)-4-(isobutyl(tetrahydro-2H-pyran-4-yl)amino)phenyl)butanoic Acid] | 5.01 | 2.51 | <5 | <5
CC(C)CN(CC(C)C)c1ccc(C(C)CC(=O)O)cc1Nc1nc(N2CCN(C)CC2)ns1 (stereo not drawn) [example 116, 3-{4-[bis(2-methylpropyl)amino]-3-{[3-(4-methylpiperazin-1-yl)-1,2,4-thiadiazol-5-yl]amino}phenyl}butanoic acid] | 39800 | – | <4.3 | <4.3
CC(C)CN(CC(C)C)c1ccc(C(C)CC(=O)O)cc1Nc1nc(N2CCOCC2)ns1.O=C(O)C(F)(F)F (stereo not drawn) [example 117, 3-{4-[bis(2-methylpropyl)amino]-3-{[3-(morpholin-4-yl)-1,2,4-thiadiazol-5-yl]amino}phenyl}butanoic acid] | 3980 | – | <4.3 | <4.3
CC(C)CN(CC(C)C)c1ccc(C(C)CC(=O)O)cc1Nc1nc2ccccc2n1C (stereo not drawn) [example 119, 3-{4-[bis(2-methylpropyl)amino]-3-[(1-methyl-1H-1,3-benzodiazol-2-yl)amino]phenyl}butanoic acid] | 1260 | – | <4.3 | <4.3
COCCN(c1ccc(-c2ccccc2C(=O)O)cc1Nc1nc2ccccc2[nH]1)C1CCCCC1 [example 285, 3′-[(1H-1,3-benzodiazol-2-yl)amino]-4′-[cyclohexyl(2-methoxyethyl)amino]-[1,1′-biphenyl]-2-carboxylic acid] | 794 | – | <5 | –
CC(C)CN(CC(C)C)c1ccc(-c2ccccc2C(=O)O)cc1Nc1nc2ccccc2o1 [example 293, 3′-[(1,3-benzoxazol-2-yl)amino]-4′-[bis(2-methylpropyl)amino]-[1,1′-biphenyl]-2-carboxylic acid] | 631 | – | <5 | –
CC(C)CN(c1ccc(-c2ccccc2C(=O)O)cc1Nc1nc2ccccc2[nH]1)C1CCOCC1 [example 296, 3′-[(1H-1,3-benzodiazol-2-yl)amino]-4′-[(2-methylpropyl)(oxan-4-yl)amino]-[1,1′-biphenyl]-2-carboxylic acid] | 631 | – | <5 | –

Now from value to molecule, other results behind:

IC50 [3] [nM] | IC50 [4] [nM] | SMILES | HELA_IDO1_TOX_PXC50 [1] | PBMC TOX PXC50 [2]
3.16 | 2.51 | CC(C)CN(c1ccc(C2CC2C(=O)O)cc1Nc1nc(C(F)(F)F)ns1)C1CCCCC1 (single isomer, unassigned) [Example 104, 2-(4-(cyclohexyl(isobutyl)amino)-3-((3-(trifluoromethyl)-1,2,4-thiadiazol-5-yl)amino)phenyl)cyclopropanecarboxylic Acid] | <5 | <5
6.31 | 3.16 | CC(C)CN(c1ccc(C2CC2C(=O)O)cc1Nc1nc(C(F)(F)F)ns1)C1CCCCC1 (single isomer, unassigned) [Example 105, 2-(4-(cyclohexyl(isobutyl)amino)-3-((3-(trifluoromethyl)-1,2,4-thiadiazol-5-yl)amino)phenyl)cyclopropanecarboxylic Acid] | <5 | –
3.98 | 0.794 | CC(C)CN(c1ccc(C(C)(C)CC(=O)O)cc1Nc1nc(C(F)(F)F)ns1)C1CCOCC1 [Example 1, 3-(4-(isobutyl(tetrahydro-2H-pyran-4-yl)amino)-3-((3-(trifluoromethyl)-1,2,4-thiadiazol-5-yl)amino)phenyl)-3-methylbutanoic Acid] | <5 | <5
7.94 | 1.58 | CC(C)CN(c1ccc(C(C)(C)CC(=O)O)cc1Nc1nc(Cl)ns1)C1CCCCC1 [Example 2, 3-(3-((3-chloro-1,2,4-thiadiazol-5-yl)amino)-4-(cyclohexyl(isobutyl)amino)phenyl)-3-methylbutanoic Acid] | <5 | <5
25.1 | 5.01 | CC(C)CN(c1ccc(C(C)(C)CC(=O)O)cc1Nc1nc(Cl)ns1)C1CCOCC1 [Example 5, 3-(3-((3-chloro-1,2,4-thiadiazol-5-yl)amino)-4-(isobutyl(tetrahydro-2H-pyran-4-yl)amino)phenyl)-3-methylbutanoic Acid] | <5 | <5
2.51 | 1 | CC(C)CN(c1ccc([C@H](C)CC(=O)O)cc1Nc1cnc(C(F)(F)F)nc1)C1CCOCC1 [Example 9, (R)-3-(4-(isobutyl(tetrahydro-2H-pyran-4-yl)amino)-3-((2-(trifluoromethyl)pyrimidin-5-yl)amino)phenyl)butanoic Acid] | <5 | <5
31.6 | 2.51 | CC(C)CN(c1ccc(C(C)CC(=O)O)cc1Nc1nc(Cl)ns1)C1CCOCC1 (stereo not drawn) [Example 21, 3-(3-((3-chloro-1,2,4-thiadiazol-5-yl)amino)-4-(isobutyl(tetrahydro-2H-pyran-4-yl)amino)phenyl)butanoic Acid] | <5 | 5.2
5010 | – | CC(C)CN(CC(C)C)c1ccc(C(C)CC(=O)O)cc1Nc1nc(N2CCCC2)ns1.O=C(O)C(F)(F)F (stereo not drawn) [example 118, 3-{4-[bis(2-methylpropyl)amino]-3-{[3-(pyrrolidin-1-yl)-1,2,4-thiadiazol-5-yl]amino}phenyl}butanoic acid] | <4.3 | <4.3
251 | 126 | CC(C)CN(c1ccc([C@H](C)CC(=O)O)cc1NC1CCCC1)C1CCCCC1 [example 179, (3R)-3-{4-[cyclohexyl(2-methylpropyl)amino]-3-(cyclopentylamino)phenyl}butanoic acid] | <5 | –
794 | – | CC(C)CN(c1ccc(-c2ncccc2C(=O)O)cc1Nc1nc2ccccc2o1)C1CCCCC1 [example 292, 2-{3-[(1,3-benzoxazol-2-yl)amino]-4-[cyclohexyl(2-methylpropyl)amino]phenyl}pyridine-3-carboxylic acid] | <5 | –
